Consider one compound from patent publication US20210330611A1, “THERAPY FOR NEUROLOGICAL DISEASES/DISORDERS” (priority 2020, published 2021).

Structures are written as SMILES.

One data set has as its system microglia. The data set is classed as in vivo, mouse. The note with it: healthy mice, 14 days, FIG. 12. How it is done: FIGS. 12A-E. Effects of acivicin on microglia, macrophage and whole blood cell numbers. a, Representative images showing morphology and density of primary microglia treated with vehicle or acivicin for 48 h stained with nuclei marker Hoechst or CellMask Red Whole Cell Stain. Quantification of the total number of microglia. Data are representative of one experiment with technical replicates (open symbols). b, Representative confocal images showing morphology and density of control- and acivicin-treated BMDMs treated for 24 h. Scale bar, 100 μm. Insets depict digitally zoomed in areas of regions of interest. Quantification of the total number of BMDMs in the field of view. […] Cell viability of single CD45^+ cells was assessed by Sytox blue live/dead nuclei stain. Quantification of percent cell viability of CD45^+ BMDMs treated with acivicin or left untreated. Data are from 2 independent experiments with n=4 mice per group (mean±s.d.). d, Quantification of complete blood count analysis of white blood cells (WBCs), red blood cells (RBC), platelets (PLT) (left) and composition of WBCs (right) of blood samples from healthy mice treated with saline or acivicin for 10 days. […] Quantification of total microglia cell numbers in healthy mice treated with acivicin or saline. […]

Another data set has as its system GGT. Nature of the data set: GGT activity in spinal cord of MOG35-55 EAE mice. Format: in vivo, mouse. Conditions: FIG. 7e. The procedure: GGT activity assay. GGT activity was measured using the MaxDiscovery gamma-Glutamyl Transferase (GGT) Enzymatic Assay Kit (Bioo Scientific) according to the manufacturer's protocol. […]. For in vivo GGT activity assay, spinal cord tissues from the onset of MOG35-55 EAE or LPS-injected substantia nigra area at 12 h were prepared. Tissues were homogenized in 0.1 M Tris-HCl and centrifuged at 13,000 g for 30 min at 4° C. The supernatant was collected and subsequently assessed for GGT activity. The absorbance at 405 nm was detected with a SpectraMax M5 microplate reader (Molecular Devices) with SoftMax Pro 5.2 software (Phoenix Technologies Ltd.). The GGT activity in IU/1 was calculated following the manufacturer's protocol by multiplying the average increase in absorbance at 405 nm over 10 min GGT activity was also measured using a fluorescent probe, ProteoGREEN-gGlu (Goryo Chemical, Hokkaido, Japan), according to the manufacturer's protocol. Cultured BMDMs were plated on 96-well, black μ-clear-bottom microtiter plates (Greiner Bio-One) pre-coated with 25 μg/ml fibrin. […] The fluorescence intensity (excitation/emission filter pairs of 488 nm/520 nm) was measured using a SpectraMax M5 microplate reader (Molecular Devices) with SoftMax Pro 5.2 software (Phoenix Technologies).

The test system of another data set is neuronal viability. Conditions: similar concentration range; cited from earlier work.

For the compound `N[C@H](C(=O)O)[C@@H]1CC(Cl)=NO1` [Acivicin, (2S)-2-amino-2-[(5S)-3-chloro-4,5-dihydro-1,2-oxazol-5-yl] acetic acid], the “microglia numbers in the spinal cord in vivo” value in the data set with microglia is on record as “did not affect”. Besides, the “GGT activity in the EAE spinal cord” value in the data set with GGT is reported as “decreased”. In addition, in the data set with neuronal viability, the neuronal viability result is on record as “does not affect”.
